Experiment: UDOS (unilateral desorption from the outer surface): effect of accelerators on the mobility of 14C-labelled 2,4-D in isolated cuticles
Format: in vitro ADME, Citrus
Conditions: Abb. 11; for Zeitabhängigkeit der Effekte: effects increased with time; for Wirkungen (Effekt auf die Mobilität von 2,4-D): compared with Heptanol, Octanol, Nonanol and Decanol

Row | Compound | Zeitabhängigkeit der Effekte | Wirkungen (Effekt auf die Mobilität von 2,4-D)
1 | CCCCCCCCCCCCO [Dodecanol] | stark zeitabhängig | deutlich niedriger
2 | CCCCCCO [Hexanol] | stark zeitabhängig | deutlich niedriger

Source: EP1018299A2, “Plant treatment agents” (BAYER AG, priority 1992, dated 1994)
